This is an account of results in article PMC4284807, “Activation of RidA chaperone function by N-chlorination” (Nature Communications, 2014).

In data set [1] the target is T1, RidA (untreated) (Escherichia coli, UniProt P0AF93).
T1 construct: full-length recombinant RidA, 13,480 Da (fits loss of initiator Met), trimer; untreated
T1 sequence (P0AF93 2-128): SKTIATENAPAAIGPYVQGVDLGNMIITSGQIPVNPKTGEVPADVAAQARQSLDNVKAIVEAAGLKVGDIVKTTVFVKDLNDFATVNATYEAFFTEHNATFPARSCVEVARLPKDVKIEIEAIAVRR
Description: fluorescence titration of dye with protein. The format is binding. The following applies: protein varied 1-200 μM, 0.2 μM dye, 40 mM HEPES-KOH pH 7.4, emission 613 nm, hydrophobicity probe.

Data set [2] concerns the target T2, IlvA (Escherichia coli, UniProt P04968).
T2 sequence (P04968 1-514): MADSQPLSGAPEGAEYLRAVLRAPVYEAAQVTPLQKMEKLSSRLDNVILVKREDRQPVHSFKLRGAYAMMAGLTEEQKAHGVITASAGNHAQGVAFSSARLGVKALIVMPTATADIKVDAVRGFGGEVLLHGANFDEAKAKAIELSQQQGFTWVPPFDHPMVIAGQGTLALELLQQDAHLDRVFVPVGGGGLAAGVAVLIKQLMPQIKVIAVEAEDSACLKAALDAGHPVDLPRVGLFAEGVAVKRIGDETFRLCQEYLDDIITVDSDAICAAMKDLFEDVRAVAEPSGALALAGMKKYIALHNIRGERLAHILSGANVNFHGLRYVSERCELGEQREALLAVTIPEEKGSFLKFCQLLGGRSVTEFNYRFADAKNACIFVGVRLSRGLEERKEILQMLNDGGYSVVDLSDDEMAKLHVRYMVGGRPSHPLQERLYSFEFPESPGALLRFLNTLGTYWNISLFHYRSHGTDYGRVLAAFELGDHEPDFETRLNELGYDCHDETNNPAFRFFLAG
The data set is described as follows: alpha-ketobutyrate formation at […] nm. It is filed as biochemical. The following applies: 10 mM threonine, 0.9 μM IlvA, MES/HEPES/TAPS pH 7.5, 20 °C; accelerated by untreated RidA.

Data set [3] concerns the molecule itself. The data set is described as follows: SEC; analytical gel filtration, Superdex 75 10/300 GL, flow rate 0.5 ml min^-1; untreated RidA or RidA treated with a 10-fold excess of HOCl for 5 min at 37 °C (HOCl removed).

As to `CCN(CC)c1ccc2nc3c4ccccc4c(=O)cc-3oc2c1` [Nile red], the dissociation constant (Kd) in data set [1] amounted to 121 µM. Turning to `C[C@@H](O)[C@H](N)C(=O)O` [threonine], the “alpha-ketobutyrate formation at 230 nm” value in data set [2] is given as “α-ketobutyrate generation from threonine catalysed by threonine deaminase IlvA”.

B1: E. coli RidA, untreated (natural protein, UniProt P0AF93 1-128, looked up)
chain: MSKTIATENAPAAIGPYVQGVDLGNMIITSGQIPVNPKTGEVPADVAAQARQSLDNVKAIVEAAGLKVGDIVKTTVFVKDLNDFATVNATYEAFFTEHNATFPARSCVEVARLPKDVKIEIEAIAVRR
notes: RidA of Escherichia coli, member of the YjgF/YER057c/UK114 family; mass of the unmodified full-length protein printed as 13,480 Da; The printed mass of 13,480 Da may mean that the first methionine is missing (surmise); also called RidA-UT; untreated RidA
As to B1, the “stoichiometry N” value in data set [3] came out at 3.

B2: HOCl-treated RidA (RidA_(HOCl)) (natural protein, E. coli, UniProt P0AF93 1-128, looked up)
chain: MSKTIATENAPAAIGPYVQGVDLGNMIITSGQIPVNPKTGEVPADVAAQARQSLDNVKAIVEAAGLKVGDIVKTTVFVKDLNDFATVNATYEAFFTEHNATFPARSCVEVARLPKDVKIEIEAIAVRR
modifications: N-chlorinated: up to seven chlorine atoms added (positions not mapped); up to five oxygen atoms added to methionine and cysteine residues
notes: RidA of Escherichia coli, treated with HOCl; The chlorinated residues are not identified; the authors suspect lysine, arginine and the N-terminus; also called N-chlorinated RidA; source: HOCl removed with Micro Bio-Spin columns
Take B2: in data set [3], the binding result is reported as “binds”.
